The conditions of series [1]: crystal powder, after three impacts, mean of three sites. The source says: Here, the “angle of rupture” refers to an angle formed by a horizontal plane and a generating line of a cone which is formed when a certain impact is applied indirectly to a cone formed with a powder when the powder is allowed to gently fall onto the horizontal plane through a kind of a funnel.
The angle of rupture can be measured using Multi Tester MT-1001T (manufactured by Seishin Enterprise Co., Ltd.) according to the accompanying manual by the following method.
A weight attached to the bottom of a repose angle table unit (component number: MT-1028) is slowly lifted under a tapping table and allowed to fall after the measurement of the angle of repose. This operation is repeated three times. In the same manner as the method of measuring the angle of repose, angles are read at three sites, and the arithmetic mean thereof is determined to be the angle of rupture.

The conditions of series [2]: crystal powder, 400 taps at 1 tap/sec, 100 mL container, average of three. The method, then: Here, the “dense specific volume” refers to a value which is obtained by dividing a volume occupied by a powder by a mass when the powder is filled in a container, a certain impact is applied to the container, and then the mass of the powder is measured.
The dense specific volume can be measured, for example, using Multi Tester MT-1001T (manufactured by Seishin Enterprise Co., Ltd.) according to the accompanying manual under the following conditions based on the 17th revision, Pharmacopoeia of Japan.
[Measurement Conditions for Dense Specific Volume]
(§1) Apparatus for use: multi-tester MT-1001T type (manufactured by Seishin Enterprise Co., Ltd.)
(§2) Vibration range: 0.7 mm to 0.8 mm
Specific example of method of measuring dense specific volume: A 100 mL cylindrical container made of stainless steel equipped with an auxiliary cylinder is filled while the crystal is dropped via a 1.18 mm sieve vibrated at a range of 0.7 mm to 0.8 mm. […] The measurement is independently performed three times to determine an average value.

For series [3] the following is noted: crystal powder, 1.18 mm sieve, 100 mL container, average of three. Here is the method: Here, the “loose specific volume” refers to a value which is obtained by dividing a volume occupied by a powder by a mass when the powder is filled in a container and the mass of the powder is measured.
The loose specific volume can be measured using Multi Tester MT-1001T (manufactured by Seishin Enterprise Co., Ltd.) according to the accompanying manual under the following conditions based on the 17th revision, Pharmacopoeia of Japan.
[Measurement Conditions for Loose Specific Volume]
as §1, §2
Specific example of method of measuring loose specific volume: A 100 mL cylindrical container made of stainless steel is filled while the crystal is dropped via a 1.18 mm sieve vibrated at a range of 0.7 mm to 0.8 mm. Excess powder is carefully rubbed off from the top surface of the container, and the mass of the powder is measured by subtracting the mass of an empty measurement container measured in advance. The measurement is independently performed three times to determine an average value.

For series [4] the following is noted: crystal powder, mean of three sites.
Text: Here, the “angle of repose” refers to an angle formed by a horizontal plane and a generating line of a cone formed with a powder when the powder is allowed to gently fall onto the horizontal plane through a kind of a funnel.
The angle of repose can be measured using Multi Tester MT-1001T (manufactured by Seishin Enterprise Co., Ltd.) according to the accompanying manual under the following conditions.
[Measurement Conditions for Angle of Repose]
as §1, §2
Specific example of method of measuring angle of repose: The crystal is piled on an repose angle table (component number: MT-1028) while dropped via a 1.18 mm sieve vibrated at a range of 0.7 mm to 0.8 mm. The repose angle table is rotated without giving vibration, angles are read at three sites, and an arithmetic mean thereof is determined to be the angle of repose.

Where two headings read alike, the source gives them in different places.

With cytidine diphosphate choline, the “concentration of the cytidine diphosphate choline in filtrate (solubility)” value (from here on “concentration”) reads like this: (ethanol concentration 50% by volume, 30° C.) 282000 µg/mL; (ethanol concentration 50% by volume, 35° C.) 286000 µg/mL; (ethanol concentration 50% by volume, 40° C.) 317000 µg/mL; (ethanol concentration 66% by volume, 30° C.) 27600 µg/mL; (ethanol concentration 66% by volume, 35° C.) 31600 µg/mL; (ethanol concentration 66% by volume, 40° C.) 54200 µg/mL. Also, the “concentration” value is, setting by setting: (ethanol concentration 71% by volume, 30° C.) 8490 µg/mL; (ethanol concentration 71% by volume, 35° C.) 9700 µg/mL; (ethanol concentration 71% by volume, 40° C.) 11100 µg/mL; (ethanol concentration 75% by volume, 30° C.) 3230 µg/mL; (ethanol concentration 75% by volume, 35° C.) 3650 µg/mL; (ethanol concentration 75% by volume, 40° C.) 4040 µg/mL. Further, the “concentration” value reads like this: (ethanol concentration 78% by volume, 30° C.) 1400 µg/mL; (ethanol concentration 78% by volume, 35° C.) 1680 µg/mL; (ethanol concentration 78% by volume, 40° C.) 1690 µg/mL; (ethanol concentration 80% by volume, 30° C.) 760 µg/mL; (ethanol concentration 80% by volume, 35° C.) 840 µg/mL; (ethanol concentration 80% by volume, 40° C.) 920 µg/mL.

In turn, “cytidine diphosphate choline [Comparative Example 1]” returned an Angle of rupture in series [1] of 40.1 degree. Also, the Dense specific volume in series [2] is 1.49 mg/L. This substance showed a Loose specific volume in series [3] of 2.33 mg/L. Further, in series [4], the Angle of repose amounted to 49.6 degree.

Turning to “cytidine diphosphate choline [Comparative Example 3]”, the Angle of rupture in series [1] came to 50.8 degree. For the same substance, the Dense specific volume in series [2] is recorded as 2.19 mg/L. In series [3], the Loose specific volume was determined as 4.19 mg/L. The Angle of repose in series [4] came to 57.4 degree.

As for “cytidine diphosphate choline [Comparative Example 4]”, the Angle of rupture in series [1] stood at 46.4 degree. Also, in series [2], the Dense specific volume is recorded as 2.93 mg/L. Also, the Loose specific volume in series [3] was found to be 5.74 mg/L. This substance yielded an Angle of repose in series [4] of 48.7 degree.

Regarding “cytidine diphosphate choline [Example 1]”, the Angle of rupture in series [1] was found to be 39.6 degree. Besides, in series [2], the Dense specific volume is given as 2.13 mg/L. In series [3], this substance showed a Loose specific volume of 3.42 mg/L. Further, in series [4], the Angle of repose was found to be 46.9 degree.

As for “cytidine diphosphate choline [Example 2]”, in series [1], the Angle of rupture was found to be 38.7 degree. The Dense specific volume in series [2] came to 1.82 mg/L. The Loose specific volume in series [3] came out at 2.55 mg/L. The same substance showed an Angle of repose in series [4] of 47.2 degree.

In turn, “cytidine diphosphate choline [Example 3]” registered an Angle of rupture in series [1] of 47.1 degree. In series [2], this substance displayed a Dense specific volume of 2.19 mg/L. Moreover, in series [3], the Loose specific volume is listed as 3.58 mg/L. The substance also gave an Angle of repose in series [4] of 52.8 degree.

In series [1], “cytidine diphosphate choline [Example 4]” displayed an Angle of rupture of 41.6 degree. In series [2], this substance yielded a Dense specific volume of 1.55 mg/L. Further, the Loose specific volume in series [3] is listed as 2.00 mg/L. Besides, in series [4], the Angle of repose came out at 43.4 degree.

The substance “cytidine diphosphate choline [Product of company A]” returned an Angle of rupture in series [1] of 48.7 degree. Moreover, the Dense specific volume in series [2] came out at 1.67 mg/L. In series [3], this substance displayed a Loose specific volume of 2.81 mg/L. In series [4], this substance returned an Angle of repose of 56.6 degree.

These data come from patent publication US11186605B2 (KYOWA HAKKO BIO CO., LTD., priority 2016, dated 2021).
